Source: patent publication US6495604B1, “Cycloalkene derivatives, process for producing the same, and use” (Takeda Chemical Industries, Ltd., priority 1998, dated 2002)

Assays:
[1] = system: NO production by RAW264.7 cell; assay: NO production-inhibiting effect in RAW264.7 cells (nitrite ion by DAN fluorescence); format: cell-based, mouse; details: Mus musculus, RAW264.7, RAW264.7; LPS 5 ng/ml + interferon gamma 1 U/ml; nitrite ion in culture supernatant after overnight incubation
Method: Mouse macrophage cell line RAW264.7 was used as an iNOS-inducible cell and a test compound was examined for its % inhibition of NO production. The test compound was dissolved at 10 mM in N,N-dimethylformamide and diluted with an RPMI-1640 medium at the concentration of 0.1 mM. The concentration was further adjusted using the medium so that a final concentration ranging from 10 μM to 10 nM could be obtained by a 10-fold serial dilution and the test compound was added to a culture medium. On the day before the experiment, the cell was adjusted at 5×10^5/ml in an RPMI-1640 medium supplemented with 10% inactivated fetal calf serum and inoculated to a 96-well microplate at 1×10^5 cells/0.2 ml per well. After incubating at 37° C. under an atmosphere of 5% CO2/95% air overnight, the test compound adjusted as described above was added and then LPS and interferon gamma were added at the final concentrations of 5 ng/ml and 1 U/ml, respectively. After further incubating overnight, culture supernatants were examined for the concentration of nitrite ion (stable metabolite of NO) which was used as an index for the NO production. The nitrite ion concentration was determined by adding 25 μl of 20 μg/ml of 2,3-diaminonaphthalene (DAN) to 50 μl of the culture supernatant, followed by incubating at room temperature for 10 minutes, followed by adding 25 μl of 0.5 N NaOH, followed by determining a fluorescence at 450 nm (excitation wavelength: 365 nm). An IC50 represents the concentration of the test compound which inhibits 50% of the NO production.

[2] = system: IL-1α production, RAW264.7; assay: Cytokine production-inhibiting effect in RAW264.7: IL-1α; format: cell-based; details: Mus musculus, LPS 1.0 μg/ml in the absence of interferon gamma
Method: Using mouse macrophage cell line RAW264.7, a test compound was examined for its % inhibition of a cytokine production. The test compound was dissolved at 10 mM in N,N-dimethylformamide and dilutedwith an RPMI-1640 medium at the concentration of 0.1 mM. The concentration was further adjusted using the medium so that a final concentration ranging from 10 μM to 10 nM could be obtained by a 10-fold serial dilution and the test compound was added to a culture medium. On the day before the experiment, the cell was adjusted at 5×10^5/ml in an RPMI-1640 medium supplemented with 10% inactivated fetal calf serum and inoculated to a 96-well microplate at 1×10^5 cells/0.2 ml per well. After incubating at 37° C. under an atmosphere of 5% CO2/95% air overnight, the test compound adjusted as described above was added and then LPS and interferon-gamma were added at the final concentrations of 5 ng/ml and 1 U/ml, respectively. After further incubating overnight, culture supernatants were examined for the concentrations of TNF-α and IL-6. IL-1α was determined using 1.0 μg/ml of LPS in the absence of interferon gamma under otherwise similar conditions. Each cytokine was determined using an assay kit manufactured by Amersham. An IC50 represents the concentration of the test compound which inhibits 50% of the cytokine production.

[3] = system: blood nitric oxide concentration (NOx); assay: Effect on increase in blood nitric oxide level (LPS-treated mice); format: in vivo, BALB/c mice; details: Mus musculus; 30 mg/kg orally 1 hour before LPS 10 mg/kg i.p.; serum nitrite+nitrate 6 hours after LPS; vs control group; read-out: Inhibition % of NO in blood
serum TNF-α = assay: Effect on increase in blood cytokine level (LPS-treated mice): TNF-α; format: in vivo, BALB/c mice; details: Mus musculus; 30 mg/kg orally 1 hour before LPS 10 mg/kg i.p.; serum 1 hour after LPS; vs control group
Method: (§1) As a result of a defense mechanism against an infection or an immune abnormality, various in vivo cytokines are produced. Accordingly, an experimental animal model was used to examine the effect of a test compound on the increase in the blood cytokine level.
(§2) Female BALB/c mice (6 weeks old) were purchased and acclimatized for 1 week and assigned to the groups in each of which 6 to 8 animals were included. In a treatment group, 30 mg/kg of a test compound suspended in a 0.5% aqueous solution of methyl cellulose was given orally. In a control group, the vehicle was given similarly. After 1 hour, LPS (10 mg/kg) was given intraperitoneally to each animal in the treatment and control groups, and the blood was taken 1 hour after the LPS administration and examined for the serum concentrations of TNF-α. IL-1α, IL-1β and IL-6 concentrations were determined using the serum from the blood taken 6 hours after the LPS administration. Each cytokine was determined using an assay kit manufactured by Amersham.

serum IL-1α = assay: Effect on increase in blood cytokine level (LPS-treated mice): IL-1α; format: in vivo, BALB/c mice; details: Mus musculus; 30 mg/kg orally 1 hour before LPS 10 mg/kg i.p.; serum 6 hours after LPS; vs control group
Method: as §1, §2

serum IL-1β = assay: Effect on increase in blood cytokine level (LPS-treated mice): IL-1β; format: in vivo, BALB/c mice; details: Mus musculus; 30 mg/kg orally 1 hour before LPS 10 mg/kg i.p.; serum 6 hours after LPS; vs control group
Method: as §1, §2

serum IL-6 = assay: Effect on increase in blood cytokine level (LPS-treated mice): IL-6; format: in vivo, BALB/c mice; details: Mus musculus; 30 mg/kg orally 1 hour before LPS 10 mg/kg i.p.; serum 6 hours after LPS; vs control group
Method: as §1, §2

IC50 [1]: 0.12 to 0.32 µM | IC50 [2]: 0.39 µM
SMILES: CCOC(=O)C1=CCCCC1S(=O)(=O)Nc1ccc(Cl)cc1F (stereo not shown) [Compound 1, ethyl 6-[N-(4-chloro-2-fluorophenyl)sulfamoyl]-1-cyclohexene-1-carboxylate]
inhibition at 30 mg/kg [3]: 76% | inhibition at 30 mg/kg (serum TNF-α): 98% | inhibition at 30 mg/kg (serum IL-1α): 97% | inhibition at 30 mg/kg (serum IL-1β): 73% | inhibition at 30 mg/kg (serum IL-6): 89%
